The NIST ThermoML archive (doi:10.1016/j.jct.2019.02.027)
Values joined by “and” are separate entries in the source; they are usually repeats but may differ in a detail not shown here. Identical values can stand only once.

Columns and labels:
[1] = 298.15 K; 101.33 kPa; Liquid; Vibrating tube method
[2] = xn = mol fraction of the nth substance listed; conditions: 298.15 K, 100 kPa, Liquid, Vibrating tube method

O=Cc1ccco1 [2-furaldehyde]
Conditions | mass density [kg/m3]
[1] | 1155.45

O=Cc1ccco1 [2-furaldehyde] + CC(C)O
[2]
Conditions | mass density [kg/m3]
x1 = 0.0534 | 803.11
x1 = 0.0877 | 817.2
x1 = 0.1839 | 856.01
x1 = 0.2041 | 864.12
x1 = 0.2517 | 882.87
x1 = 0.2794 | 893.74
x1 = 0.2855 | 896.16
x1 = 0.4063 | 942.61
x1 = 0.5153 | 983.56
x1 = 0.5364 | 991.32
x1 = 0.5702 | 1003.8
x1 = 0.6564 | 1035.2
x1 = 0.7345 | 1063.04
x1 = 0.8252 | 1094.94
x1 = 0.9055 | 1122.98
x1 = 1 | 1155.45

O=Cc1ccco1 [2-furaldehyde] + CCC(C)O
[2]
Conditions | mass density [kg/m3]
x1 = 0.0237 | 810.18
x1 = 0.0782 | 827.38
x1 = 0.1343 | 845.24
x1 = 0.1345 | 845.28
x1 = 0.2696 | 889.52
x1 = 0.2773 | 892.16
x1 = 0.417 | 939.59
x1 = 0.4498 | 951
x1 = 0.535 | 980.92
x1 = 0.6274 | 1014.08
x1 = 0.6673 | 1028.58
x1 = 0.7355 | 1053.74
x1 = 0.803 | 1079.08
x1 = 0.8794 | 1108.12
x1 = 1 | 1155.45

O=Cc1ccco1 [2-furaldehyde] + CCCC(C)O
Conditions | mass density [kg/m3]
[2], x1 = 1 | 1155.45

O=Cc1ccco1 [2-furaldehyde] + CCCCCCO
[2]
Conditions | mass density [kg/m3]
x1 = 0.0958 | 837.47
x1 = 0.1364 | 847.08
x1 = 0.1378 | 847.41
x1 = 0.2218 | 868.43
x1 = 0.2573 | 877.76
x1 = 0.2623 | 879.07
x1 = 0.2983 | 888.83
x1 = 0.3699 | 909.14
x1 = 0.4124 | 921.74
x1 = 0.4947 | 947.51
x1 = 0.4965 | 948.07
x1 = 0.5802 | 976.2
x1 = 0.6437 | 998.96
x1 = 0.7375 | 1035.07
x1 = 0.7661 | 1046.67
x1 = 0.7703 | 1048.36
x1 = 0.847 | 1081.45
x1 = 0.8939 | 1102.9
x1 = 1 | 1155.45

O=Cc1ccco1 [2-furaldehyde] + CCCCCO
[2]
Conditions | mass density [kg/m3]
x1 = 0.0837 | 833.12
x1 = 0.1212 | 843.42
x1 = 0.1906 | 863.01
x1 = 0.2617 | 883.85
x1 = 0.2997 | 895.29
x1 = 0.3856 | 922.11
x1 = 0.4254 | 934.98
x1 = 0.5075 | 962.35
x1 = 0.5396 | 973.38
x1 = 0.6236 | 1003.18
x1 = 0.708 | 1034.59
x1 = 0.7358 | 1045.18
x1 = 0.7671 | 1057.41
x1 = 0.8967 | 1110.25
x1 = 0.9015 | 1112.3
x1 = 1 | 1155.45

O=Cc1ccco1 [2-furaldehyde] + CCCO
[2]
Conditions | mass density [kg/m3]
x1 = 0.0847 | 834.01
x1 = 0.134 | 853.46
x1 = 0.2237 | 888
x1 = 0.2415 | 894.81
x1 = 0.2507 | 898.28
x1 = 0.2827 | 910.39
x1 = 0.3632 | 940.23
x1 = 0.4309 | 964.88
x1 = 0.5022 | 990.31
x1 = 0.6164 | 1030.13
x1 = 0.7194 | 1065
x1 = 0.7803 | 1085.14
x1 = 0.8714 | 1114.75
x1 = 0.9006 | 1124.2
x1 = 0.9038 | 1125.2
x1 = 1 | 1155.45

Cc1ccco1 [2-methylfuran]
Conditions | mass density [kg/m3]
[1] | 910.73

Cc1ccco1 [2-methylfuran] + CC(C)O
[2]
Conditions | mass density [kg/m3]
x1 = 0.0267 | 785.02
x1 = 0.0493 | 788.28
x1 = 0.0908 | 794.29
x1 = 0.1257 | 799.31
x1 = 0.179 | 806.65
x1 = 0.2619 | 817.86
x1 = 0.2995 | 822.82
x1 = 0.3935 | 835.05
x1 = 0.537 | 853.23
x1 = 0.6047 | 861.52
x1 = 0.6784 | 870.65
x1 = 0.7217 | 876.04
x1 = 0.8122 | 886.89
x1 = 0.8256 | 888.45
x1 = 0.8759 | 894.66
x1 = 0.9472 | 903.47
x1 = 1 | 910.73

Cc1ccco1 [2-methylfuran] + CCC(C)O
[2]
Conditions | mass density [kg/m3]
x1 = 0.0549 | 808.11
x1 = 0.0656 | 809.45
x1 = 0.0952 | 812.22
x1 = 0.1847 | 821.08
x1 = 0.2954 | 831.67
x1 = 0.3763 | 839.84
x1 = 0.4673 | 849.03
x1 = 0.5696 | 859.9
x1 = 0.6998 | 873.97
x1 = 0.7611 | 881.06
x1 = 0.8132 | 887.16
x1 = 0.8548 | 891.9
x1 = 0.8832 | 895.12
x1 = 0.8998 | 897.35
x1 = 0.9091 | 898.45
x1 = 0.9333 | 901.44
x1 = 1 | 910.73

Cc1ccco1 [2-methylfuran] + CCCC(C)O
[2]
Conditions | mass density [kg/m3]
x1 = 0.0907 | 813.42
x1 = 0.1322 | 816.51
x1 = 0.1794 | 820.47
x1 = 0.2576 | 827.04
x1 = 0.3029 | 831.05
x1 = 0.4278 | 842.47
x1 = 0.4997 | 849.64
x1 = 0.6108 | 861.2
x1 = 0.6993 | 871.1
x1 = 0.7296 | 874.59
x1 = 0.8143 | 884.9
x1 = 0.8675 | 891.71
x1 = 0.9023 | 896.39
x1 = 0.9441 | 902.21
x1 = 1 | 910.73

Cc1ccco1 [2-methylfuran] + CCCCCCO
[2]
Conditions | mass density
x1 = 0.048 | 819.02 kg/m3
x1 = 0.0765 | 820.93 kg/m3
x1 = 0.1423 | 825.44 kg/m3
x1 = 0.2086 | 830.14 kg/m3
x1 = 0.2804 | 835.45 kg/m3
x1 = 0.3598 | 841.72 kg/m3
x1 = 0.4591 | 850.07 kg/m3
x1 = 0.4916 | 852.91 kg/m3
x1 = 0.5728 | 860.42 kg/m3
x1 = 0.6478 | 867.88 kg/m3
x1 = 0.7472 | 878.45 kg/m3 and 878.33 kg/m3
x1 = 0.7965 | 884.09 kg/m3
x1 = 0.8596 | 891.67 kg/m3
x1 = 0.888 | 895.23 kg/m3
x1 = 0.9411 | 902.08 kg/m3
x1 = 1 | 910.73 kg/m3

Cc1ccco1 [2-methylfuran] + CCCCCO
[2]
Conditions | mass density [kg/m3]
x1 = 0.1002 | 819.28
x1 = 0.1263 | 821.43
x1 = 0.1771 | 825.74
x1 = 0.22 | 829.43
x1 = 0.2723 | 834
x1 = 0.3399 | 840.06
x1 = 0.4257 | 848.01
x1 = 0.4599 | 851.26
x1 = 0.5134 | 856.49
x1 = 0.593 | 864.51
x1 = 0.6556 | 871.07
x1 = 0.7006 | 875.92
x1 = 0.7559 | 881.98
x1 = 0.8293 | 890.24
x1 = 0.8836 | 896.44
x1 = 1 | 910.73

CCC(C)O (configuration not stated) [butan-2-ol]
Conditions | mass density [kg/m3]
[1] | 802.88

CCC(C)O (configuration not stated) [butan-2-ol] + Cc1ccco1
Conditions | mass density [kg/m3]
[2], x2 = 0 | 802.88

CCC(C)O (configuration not stated) [butan-2-ol] + O=Cc1ccco1
Conditions | mass density [kg/m3]
[2], x2 = 0 | 802.88

CCO [ethanol]
Conditions | mass density [kg/m3]
[1] | 785.45

CCO [ethanol] + O
[2]
Conditions | mass density [kg/m3]
x1 = 0.0641 | 970.7
x1 = 0.127 | 952.3
x1 = 0.1461 | 950.1
x1 = 0.2437 | 920.1
x1 = 0.387 | 883.5
x1 = 0.4238 | 876.2
x1 = 0.7084 | 825.2
x1 = 1 | 785.5

CCCCCCO [hexan-1-ol]
Conditions | mass density [kg/m3]
[1] | 815.9

CCCCCCO [hexan-1-ol] + Cc1ccco1
Conditions | mass density [kg/m3]
[2], x2 = 0 | 815.9

CCCCCCO [hexan-1-ol] + O=Cc1ccco1
Conditions | mass density [kg/m3]
[2], x2 = 0 | 815.9

CCCCCO [pentan-1-ol]
Conditions | mass density [kg/m3]
[1] | 810.9

CCCCCO [pentan-1-ol] + Cc1ccco1
Conditions | mass density [kg/m3]
[2], x2 = 0 | 810.9

CCCCCO [pentan-1-ol] + O=Cc1ccco1
Conditions | mass density [kg/m3]
[2], x2 = 0 | 810.9

CCCC(C)O (configuration not stated) [pentan-2-ol]
Conditions | mass density [kg/m3]
[1] | 806.48

CCCC(C)O (configuration not stated) [pentan-2-ol] + Cc1ccco1
Conditions | mass density [kg/m3]
[2], x2 = 0 | 806.48

CCCC(C)O (configuration not stated) [pentan-2-ol] + O=Cc1ccco1
[2]
Conditions | mass density [kg/m3]
x2 = 0 | 806.48
x2 = 0.092 | 831.24
x2 = 0.1912 | 859.17
x2 = 0.2652 | 880.87
x2 = 0.3627 | 910.83
x2 = 0.4245 | 930.64
x2 = 0.4984 | 955.28
x2 = 0.5417 | 970.2
x2 = 0.6211 | 998.57
x2 = 0.6746 | 1018.53
x2 = 0.7117 | 1032.71
x2 = 0.7692 | 1055.38
x2 = 0.8249 | 1078.15
x2 = 0.879 | 1101.1
x2 = 0.9111 | 1115.13
x2 = 0.9542 | 1134.34

CCCO [propan-1-ol]
Conditions | mass density [kg/m3]
[1] | 799.97

CCCO [propan-1-ol] + O=Cc1ccco1
Conditions | mass density [kg/m3]
[2], x2 = 0 | 799.97

CC(C)O [propan-2-ol]
Conditions | mass density [kg/m3]
[1] | 780.95

CC(C)O [propan-2-ol] + Cc1ccco1
Conditions | mass density [kg/m3]
[2], x2 = 0 | 780.95

CC(C)O [propan-2-ol] + O=Cc1ccco1
Conditions | mass density [kg/m3]
[2], x2 = 0 | 780.95
